Results published in patent publication US20230096528A1, “Pharmaceutical Composition for Treatment or Prevention of Multiple Inflammatory disorders” (priority 2019, published 2023).

Experiments:
diet-induced (DIO) mice [1] = experiment: Body weight study in diet-induced (DIO) mice (Example 9); format: in vivo, C57BL/6NTac mice; settings: DA 92.4 mg/kg gavage BID, vs vehicle
[2] = tested on: mouse acute lung injury plus hyperthermia model; experiment: Mouse acute lung injury plus hyperthermia model (Example 7); format: in vivo; settings: LPS plus hyperthermia, CD-1 mice
Description: Lung lavage fluid was measured and cytokine analysis.

[3] = tested on: mouse peritoneum macrophages; experiment: LPS-stimulated mouse peritoneal macrophages, cytokine analysis (Example 5); format: cell-based, mice
Description: This example provides an in vivo study to determine the effect of DA on mouse peritoneum macrophages. Peritoneal exudates were obtained from Balb/c female mice by lavage 4 days after an intraperitoneal injection of 4 ml sterile 4% thioglycollate broth. After washing with RPMI 1640 medium, the cell suspensions were centrifuged at 800 g at 4° C. for 5 min. The red blood cells were eliminated by ACK buffer and the cells were washed and resuspended in RPMI 1640 supplemented with 10% inactivated FBS, 10 mM HEPES, 2 mM glutamine, and 100 U/ml penicillin-[…] streptomycin. The peritoneal macrophages were plated in 24 well tissue culture plate (2×10^5 cells/mL/well) at 37° C. in a 5% CO2 humidified atmosphere. Macrophages were precultured in serum-free RPMI 1640 medium for 24 h to reduce mitogenic effects. Macrophages were pretreated with various concentrations of DA for 1 h prior to LPS treatment and stimulated with LPS (100 ng/mL) for 24 h. Treatment groups were: [table]

[4] = tested on: leptin-deficient (ob/ob) mice; experiment: Body weight and biomarker study in leptin-deficient (ob/ob) mice, 56 days (Example 10); format: in vivo; settings: 50 mg/kg gavage BID
Description: Therefore, ob/ob mice are a predictive in vivo model for these indications. This example provides results of a study of DA plus another compound (CQL) on body weight in leptin-deficient (ob/ob) mice. Vehicle group (N=14) were treated with distilled water by gavage BID, and DA (N=14) at a dose of 50 mg/kg by gavage BID. The study period was for 56 days+2-3 days testing period afterward. Body weight change measured 3× per week, food intake was measure twice per week, metabolic biomarkers (blood glucose, blood insulin, blood HbA1c, HDL, LDL, triglyceride and bile acid) were measured at beginning and end of study. Cytokine analysis was measured at end on Day 56.

diet-induced (DIO) mice [5] = experiment: Body weight study in diet-induced (DIO) mice (Example 9); format: in vivo, C57BL/6NTac mice
Description: This example provides results of a study of DA plus another compound (CQL) on body weight in diet-induced (DIO) mice. Adult C57BL/6NTac mice were fed with a high fat diet (60%). […] The study period was for 56 days+2-3 days testing period afterward. Body weight change measure 3× per week, food and water consumption on days 0, 12, 28, 42 and 56. Metabolic biomarkers were measured on days 28 and 56. Cytokine analysis on Days 28 and 56. Serum levels of GLP-1, GLP-2, and CCK at 1 h after dosing on Days 1 and 56, and at 2 h after dosing on Day 7 (dosing (>6 h fasting prior to dosing until after blood collection); and serum level of PPY on Day 56.

[6] = day 56, no significant difference
[7] = DA 92.4 mg/kg gavage BID, vs vehicle
[8] = DA 92.4 mg/kg gavage BID, vs vehicle, no significant difference
[9] = gavage BID (DA 92.4 mg/kg, CQL 50 mg/kg)

## CC(=O)[O-].CC[N+](CC)(CC(=O)Nc1c(C)cccc1C)Cc1ccccc1 [DA, denatonium acetate]
diet-induced (DIO) mice [1]
  Daily food intake at Day 14: significantly reduced
[2]; iv bolus 3 mg/kg QD
  Protein concentration in lung lavage fluid: drastic but not significantly reduced
[2]; oral 92.4 mg/kg BID
  Protein concentration in lung lavage fluid: drastic but not significantly reduced
[3]; DA 1 μM
  GM-CSF: Significance @24 hour LPS incubation: No sig
  IFNγ: Significance @24 hour LPS incubation: No sig
  IL-1α: Significance @24 hour LPS incubation: No sig
  IL-1β: Significance @24 hour LPS incubation: No sig
  IL-2: Significance @24 hour LPS incubation: No sig
  IL-4: Significance @24 hour LPS incubation: No sig
  IL-6: Significance @24 hour LPS incubation: No sig
  IL-7: Significance @24 hour LPS incubation: No sig
  IL-10: Significance @24 hour LPS incubation: No sig
  IL-12 (p70): Significance @24 hour LPS incubation: No sig
  IL-13: Significance @24 hour LPS incubation: No sig
  IL-17A: Significance @24 hour LPS incubation: No sig
  KC/CXCL1: Significance @24 hour LPS incubation: No sig
  LIX: Significance @24 hour LPS incubation: No sig
  MCP-1: Significance @24 hour LPS incubation: No sig
  MIP-2: Significance @24 hour LPS incubation: No sig
  TNF-α: Significance @24 hour LPS incubation: No sig
[3]; DA 10 μM
  GM-CSF: Significance @24 hour LPS incubation: no sig
  IFNγ: Significance @24 hour LPS incubation: no sig
  IL-1α: Significance @24 hour LPS incubation: no sig
  IL-1β: Significance @24 hour LPS incubation: no sig
  IL-2: Significance @24 hour LPS incubation: no sig
  IL-4: Significance @24 hour LPS incubation: no sig
  IL-6: Significance @24 hour LPS incubation: no sig
  IL-7: Significance @24 hour LPS incubation: no sig
  IL-10: Significance @24 hour LPS incubation: no sig
  IL-12 (p70): Significance @24 hour LPS incubation: no sig
  IL-13: Significance @24 hour LPS incubation: no sig
  IL-17A: Significance @24 hour LPS incubation: no sig
  KC/CXCL1: Significance @24 hour LPS incubation: no sig
  LIX: Significance @24 hour LPS incubation: no sig
  MCP-1: Significance @24 hour LPS incubation: no sig
  MIP-2: Significance @24 hour LPS incubation: no sig
  TNF-α: Significance @24 hour LPS incubation: no sig
[3]; DA 100 μM
  GM-CSF: Significance @24 hour LPS incubation: no sig
  IFNγ: Significance @24 hour LPS incubation: no sig
  IL-1α: Significance @24 hour LPS incubation: no sig
  IL-1β: Significance @24 hour LPS incubation: no sig
  IL-2: Significance @24 hour LPS incubation: no sig
  IL-4: Significance @24 hour LPS incubation: no sig
  IL-6: Significance @24 hour LPS incubation: no sig
  IL-7: Significance @24 hour LPS incubation: no sig
  IL-10: Significance @24 hour LPS incubation: no sig
  IL-12 (p70): Significance @24 hour LPS incubation: no sig
  IL-13: Significance @24 hour LPS incubation: no sig
  IL-17A: Significance @24 hour LPS incubation: no sig
  KC/CXCL1: Significance @24 hour LPS incubation: no sig
  LIX: Significance @24 hour LPS incubation: no sig
  MCP-1: Significance @24 hour LPS incubation: no sig
  MIP-2: Significance @24 hour LPS incubation: no sig
  TNF-α: Significance @24 hour LPS incubation: no sig
[4]; 56 days
  Body weight: no significant effect
  Daily food consumption: no significant effect
  Serum HBA1c levels: no significant effect
  Serum HDL levels: no significant effects
  Serum glucose levels: significantly decreased
  Serum insulin levels: no significant effect
[4]; 56 days, vs vehicle
  Serum LDL levels: significantly lowered
  Serum bile acids levels: significantly increased
  Serum triglyceride levels: significantly lowered
[4]; [6]
  IL-1β level decreased by, compared to vehicle group: 19.1%
  IL-6 level decreased by, compared to vehicle group: 61.4%
  MCP-1 level decreased by, compared to vehicle group: 20.9%
  RANTES level decreased by, compared to vehicle group: 1.7%
diet-induced (DIO) mice [5]; DA 92.4 mg/kg gavage BID
  Serum glucose levels: did not show a significant effect
diet-induced (DIO) mice [5]; DA 92.4 mg/kg gavage BID, 1 h after dosing, vs vehicle
  Serum GLP-1 levels at Day 56: significantly increased
diet-induced (DIO) mice [5]; DA 92.4 mg/kg gavage BID, 2 h after dosing, vs vehicle
  Serum GLP-1 levels at Day 7: significantly increased
diet-induced (DIO) mice [5]; DA 92.4 mg/kg gavage BID, compared to vehicle and CQL
  Body weight gain at day 57: significantly reduced
diet-induced (DIO) mice [5]; [7]
  Serum CCK levels at Day 56: significantly increased
  Serum GLP-2 levels at Day 56: significantly increased
  Serum PYY levels at Day 56: significantly increased
  Serum insulin level at Day 28: significantly reduced
diet-induced (DIO) mice [5]; [8]
  Serum LDL levels at day 28: noticeable decrease
  Serum LDL levels at day 56: noticeable decrease
diet-induced (DIO) mice [5]; [9]
  Serum HbA1c level at Day 28: significantly reduced
  Serum HbA1c level at Day 56: considerably increased
diet-induced (DIO) mice [5]; gavage BID (DA 92.4 mg/kg, CQL 50 mg/kg), vs vehicle
  Daily water intake at Day 28: significantly increased
